Source: article PMC10487708, “Chlorin E6-Curcumin-Mediated Photodynamic Therapy Promotes an Anti-Photoaging Effect in UVB-Irradiated Fibroblasts” (International Journal of Molecular Sciences, 2023)

Columns and labels:
[1] = tested on: MMP-2; experiment: Gelatin zymography of MMP-2 in UVB-exposed Hs68 cells; assay type: cell-based, human; details: UVB 200 mJ/cm^2, LED 20 J/cm^2, Hs68
Source text: Since MMP-2 is a […] that plays an important role in photoaging, we examined the effect of Ce6-curcumin derivatives and LED treatment on the enzyme activities of UV-induced MMP-2 by gelatin zymography. On gelatin zymography, UVB irradiation led to the activation of MMP-2 in Hs68 cells, and this increase was inhibited by Ce6-curcumin derivatives along with LED treatments. On increasing the dose of the Ce6-curcumin derivatives, the MMP-2 was decreased (Figure 7A–C).
Data are expressed as mean ± SD from at least three independent experiments and were analyzed by one-way ANOVA with Tukey’s post hoc test, * p < 0.01 compared with control. ^# p < 0.05 compared with the UVB and LED-treated groups.
MMP-2 activity in cell culture medium was evaluated by gelatin zymography assay as described. After UVB (200 mJ/cm^2) irradiation, Hs68 cells were cultured for 24 h. Ce6-curcumin derivatives were diluted into a medium containing 1% FBS and cultured for 30 min. After 30 min, the LED was irradiated with 20 J/cm^2, cultured for 3 h, washed with 1× PBS, and 300 μL of FBS-free medium was added and cultured for 44 h. […] The activity of MMPs was measured by quantifying the transparent band by proteolytic activity after staining with Coomassie Brilliant Blue staining solution and further distaining with water, methanol, and acetic acid (50:40:10).

[2] = tested on: collagen synthesis in Hs68 cells; experiment: Sircol collagen assay in UVB-irradiated Hs68 cells; assay type: cell-based, human; details: 30–40 nM, UVB 200 mJ/cm^2, LED irradiated
Method: The amount of collagen was measured through the Sircol collagen assay kit (Figure 8).
Each scale value is shown as the mean only.
Following this, 1 mL Sirius red dye, an anionic dye that reacts specifically with the basic side chain groups of collagens under the assay conditions, was added to 300 µL of cell culture medium supernatant and incubated with gentle rotation for 30 min at room temperature. After centrifugation, the pellet was washed with ice-cold acid-salt wash reagent released in alkali reagent, and the absorbance at 570 nm was measured using an ELISA reader (Sunrise, Tecan, Männedorf, Switzerland). The amount of collagen was calculated based on a standard curve obtained with the standard bovine type I collagen supplied with the kit.

[3] = tested on: COX-2, TNF-α, iNOS; experiment: Western blot of COX-2, TNF-α and iNOS in UVB-induced 3T3 fibroblasts; assay type: cell-based, mouse; details: for UVB-upregulated COX-2 and TNF-α protein levels: fibroblast cells
Source text: We further investigated the expressions of COX-2, TNF-α, and MMP-1 to ascertain the effect of UVB on the expressions of NF-κB and AP-1-dependent genes. These genes have an NF-κB and AP-1 functional binding site in their promoter regions and are linked to inflammation.
Figure 10 Effect of Ce6-curcumin derivatives-PDT on UVB-induced COX-2 and iNOS expressions. […] Representative bars are expressed as mean only.
The cells were lysed with RIPA lysis buffer containing protease inhibitor cocktails (Gen-DEPOT, Katy, TX, USA). Cell lysates were vortexed and centrifuged at 13,000 rpm for 15 min at 4 °C. Protein concentration was determined using the Bradford protein assay kit, and the same amount of protein was separated by SDS-PAGE gel. Then, proteins were transferred to a polyvinylidene fluoride (PVDF) membrane. Further, the membranes were blocked with a blocking solution containing 5% skim milk in Tris-buffered saline containing Tween 20 (TBST) for 1 h and incubated overnight with the primary antibody diluted in 5% skim milk in TBST at 4 °C. Then, the membrane was rinsed with TBST for 30 min and incubated with horseradish peroxidase-conjugated secondary antibodies in a blocking solution for 1 h. All bands were visualized by using an enhanced chemiluminescence (ECL) kit (Pierce, Rockford, IL, USA) under a luminescent image analyzer (Amersham, GE Healthcare, Chicago, IL, USA). The primary antibodies against MMP-1 were obtained from Thermo Fischer Scientific Inc. (NYSE: TMO). Antibodies directed against p-p65, p65, p-p38, p38, p-ERK, ERK, p-c-JUN, and c-JUN were purchased from Cell Signaling Technology Inc. (Beverley, MA, USA). COX-2 and β-Actin antibodies were from Santa Cruz Biotechnology (Santa Cruz, CA, USA), while TNF-α antibodies were procured from Novus Biologicals, Inc. (Centennial, CO, USA).

[4] = tested on: BALB/c 3T3 cells; experiment: MTT cytotoxicity of Ce6-curcumin derivative PDT in BALB/c 3T3 cells; assay type: cell-based, mouse; details: Mus musculus, BALB/c3T3, light or radiation study; 3 h treatment, 660 nm 20 J/cm^2, MTT after 24 h; read-out: IC50 BALB/c 3T3 cell viability
Method: MTT assay was used to evaluate viability after 24 h. IC50 values were calculated using GraphPad Prism 5 software.
Hs68 and BALB/c 3T3 cell viability was measured using a 3-[4,5-dimethylthylthiazol-2-yl]-2,5 diphenyl tetrazolium bromide (MTT) assay. The cells were cultured in 24-well plates at a density of 3 × 10^4 cells per well or BALB/c 3T3 cells at a density of 1 × 10^4 cells per well. […] The Hs68 cells were then exposed to LED light (660 nm; 89 W/m^2; 20 J/cm^2) for 37 min 27 s and incubated for 3 h. […] The cells were washed and treated with MTT, after which the plates were incubated at 37 °C in the dark for 2 h. After the formation of formazan, 100 µL of DMSO was added, and the absorbance was measured at 570 nm using a microtiter plate reader (Thermo-scientific, Skanlt software 5.0, Waltham, MA, USA)

Question: With `C=Cc1c(C)c2cc3nc(c(CC(=O)OC)c4[nH]c(cc5nc(cc1[nH]2)C(C)=C5CC)c(C)c4C(=O)NCCCNC(=O)CCCC(=O)Oc1ccc(/C=C/C(=O)CC(=O)/C=C/c2ccc(O)c(OC)c2)cc1OC)C(CCC(=O)OC)C3C` (stereo not shown) [Ce6-propane-curcumin] as the compound, how does the “UVB-induced MMP-2 expression (gelatin zymography)” value ([1]; 100 nM) read?
Answer: significant reductions

Question: And the collagen synthesis [2]?
Answer: increase in collagen synthesis in a dose-dependent manner

Question: And the “UVB-upregulated COX-2 and TNF-α protein levels” value ([3]; 75 and 100 μΜ)?
Answer: downregulated these increases

Question: Which results are given for `C=Cc1c(C)c2cc3nc(c(CC(=O)OC)c4[nH]c(cc5nc(cc1[nH]2)C(C)=C5CC)c(C)c4C(=O)NCCCOCCOCCOCCCNC(=O)CCCC(=O)Oc1ccc(/C=C/C(=O)CC(=O)/C=C/c2ccc(O)c(OC)c2)cc1OC)C(CCC(=O)OC)C3C` (stereo not shown) [Ce6-diPEG-curcumin]?
Answer: UVB-induced MMP-2 expression (gelatin zymography) ([1]; 200 nM): highest attenuation of MMP-2 expression; IC50 [4]: 800 nM; expression levels of iNOS and COX-2 ([3]; 200 nM, PDT, UVB-induced 3T3): below those seen in the normal control; UVB-upregulated COX-2 and TNF-α protein levels ([3]; 150 and 200 μΜ): downregulated these increases
